According to US20120016009A1, “Optimized Methods For Delivery Of DSRNA Targeting The PCSK9 Gene” (priority 2008, published 2012):
In the oligonucleotide strings, read from the 5' end, every base follows the letter of its sugar. An asterisk marks phosphorothioate; unmarked linkages are phosphodiester. Other units and linkages are bracketed, terminal groups are in braces. A string of capitals states the bases alone. d = 2'-deoxy (DNA); m = 2'-O-methyl; r = 2'-OH (RNA)

System: PCSK9 mRNA
Experiment: PCSK9 siRNA screening in HepG2 cells (lipofectamine 2000 transfection, PCSK9 mRNA by Quantigene, normalized to GAP-DH)
Assay type: cell-based, human
Details: for Mean percent remaining mRNA transcript at siRNA concentration/in cell type 3 nM/HepG2: 3 nM siRNA; for Mean percent remaining mRNA transcript at siRNA concentration/in cell type 30 nM/HepG2: 30 nM siRNA
In short: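 PCSK9 silencing was assessed in HepG2 cells by lipofectamine 2000 siRNA transfection in 96-well plates. Twenty-four hours later, lysates were analyzed with the Quantigene Explore Kit, with PCSK9 signal normalized to GAP-DH. Eight datapoints were collected per siRNA, and remaining transcript was expressed as a percentage of cells treated with an unrelated control siRNA duplex.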

Substance | IC50 | Mean percent remaining mRNA transcript at siRNA concentration/in cell type 3 nM/HepG2 | Mean percent remaining mRNA transcript at siRNA concentration/in cell type 30 nM/HepG2 | Mean percent remaining mRNA transcript at siRNA concentration/in cell type 100 nM/HepG2 (100 nM siRNA)
AD-9671: PCSK9 siRNA (sense rArGmUmCrArArGrGrArGmCrAmUrGrGrArAmUmCdT*dT; antisense rGrArUrUrCmCrArUrGrCrUrCrCrUrUrGrArCrUdT*dT) | 2.5 nM | 33% | 15% | 
AD-9733: PCSK9 siRNA (sense rGrGrArGmCmUrGrGmUrGmCmUrArGmCmCmUmUrGdT*dT; antisense mCrArArGrGrCmUrArGmCrArCmCrArGrCrUrCrCdT*dT) |  | 73% | 78% | 
AD-9561: PCSK9 siRNA (sense rGrArCrArCrCrArGrCrArUrArCrArGrArGrUrGdT*dT; antisense rCrArCrUrCrUrGrUrArUrGrCrUrGrGrUrGrUrCdT*dT) |  |  | 64% | 
AD-9647: PCSK9 siRNA (sense mCmUmCmCmUrArGrAmCrAmCmCrArGmCrAmUrAmCdT*dT; antisense rGmUrArUrGrCrUrGrGrUrGrUrCmUrArGrGrArGdT*dT) |  |  | 62% | 
AD-9524: PCSK9 siRNA (sense rGrCrUrGrGrUrGrCrUrArGrCrCrUrUrGrCrGrUdT*dT; antisense rArCrGrCrArArGrGrCrUrArGrCrArCrCrArGrCdT*dT) | 0.07 nM | 28% | 23% | 
AD-9651: PCSK9 siRNA (sense rGrGrArGmUmUmUrAmUmUmCrGrGrArArArArGmCdT*dT; antisense rGrCrUrUrUrUrCrCrGrArAmUrArArArCrUrCrCdT*dT) |  |  | 58% | 
AD-9652: PCSK9 siRNA (sense mUmCmCmCrArGmCmCrArGrGrAmUmUmCmCrGmCrGdT*dT; antisense rCrGrCrGrGrArArUrCrCrUrGrGrCrUrGrGrGrAdT*dT) |  |  | 97% | 
AD-9525: PCSK9 siRNA (sense rGrGrArGrUrUrUrArUrUrCrGrGrArArArArGrCdT*dT; antisense rGrCrUrUrUrUrCrCrGrArArUrArArArCrUrCrCdT*dT) |  |  | 53% | 
AD-9538: PCSK9 siRNA (sense rCrCrGrGrGrCrGrGrArUrGrArArUrArCrCrArGdT*dT; antisense rCrUrGrGrUrArUrUrCrArUrCrCrGrCrCrCrGrGdT*dT) |  |  | 80% | 79%
AD-9722: PCSK9 siRNA (sense rGrArArGrAmUrGrArGmUrGrGmCrGrAmCmCmUrGdT*dT; antisense mCrArGrGrUrCrGrCmCrArCrUmCrArUrCrUrUrCdT*dT) |  |  | 76% | 
AD-9748: PCSK9 siRNA (sense mCmUrGmUmCmCmCmUmCmCmUmUrGrArGmCrAmCmCdT*dT; antisense rGrGrUrGrCrUmCrArArGrGrArGrGrGrAmCrArGdT*dT) |  |  | 103% | 
AD-9323: PCSK9 siRNA (sense rGrGrCrCrUrGrGrArGrUrUrUrArUrUrCrGrGrAdT*dT; antisense rUrCrCrGrArArUrArArArCrUrCrCrArGrGrCrCdT*dT) |  | 33% | 14% | 
AD-9603: PCSK9 siRNA (sense rUrUrUrCrUrGrGrArUrGrGrCrArUrCrUrArGrCdT*dT; antisense rGrCrUrArGrArUrGrCrCrArUrCrCrArGrArArAdT*dT) |  |  | 123% | 
AD-9757: PCSK9 siRNA (sense mCmUmCmUrGmCmCrArArArGrAmUrGmUmCrAmUmCdT*dT; antisense rGrArUrGrAmCrArUrCrUrUrUrGrGmCrArGrArGdT*dT) |  |  | 78% | 
